Like-named read-outs stand apart in the source and are kept apart here.

Test [1] deals with influenza virus. To be noted: cited from earlier work.
For test [2], the system named is influenza virus. Nature of the test: Viral NP in influenza virus-infected HEK-cells treated with sphingolipids (Western blot). It is filed as cell-based, Influenza A/WSN/33 virus (H1N1). To be noted: 1 MOI, 1 μM, 2 dpi. As for the experimental part:
FIG. 6 (Panels A-D) set forth data illustrating the enhanced susceptibility of SK1-cells to influenza virus infection. (A) HEK-cells (open triangle) or SK1-cells (filled square) were infected with influenza virus at 0.1 MOI. At 12, 18 or 48 hpi, virus titers were determined by plaque assay. n=3 separate virus-infected cells per group at each time point; Mean±SEM. (B) Western blot analysis was conducted at 2 dpi to detect viral NP and actin. (C) Cell lysates were used for Western blot analysis to detect STAT1, pSTAT1 and actin. (D) HEK-cells were infected with influenza virus at 1 MOI and treated with solvent controls, FTY720 (1 μM), D-erythro-sphingosine (1 μM) or S1P (1 μM). At 2 dpi, total proteins were extracted to detect viral NP and actin by Western blot analysis.
(§1) Specific antibodies against actin, influenza viral protein NP, NS1, NS2, M1, M2, Bax, Bcl-2, PARP, STAT1, pSTAT1, STAT2, pSTAT2, ERK, pERK, p38, p-p38, Akt, pAkt, JNK, pJNK, RanBP3, pRanBP3, p-p90RSK, and FLAG for SPL and SK1 were purchased from Cell Signaling Technology, Abcam, Upstate, or Santa Cruz Biotechnology. Total proteins were extracted by a RIPA buffer supplemented with inhibitors blocking proteases and phosphatases, and then normalized by using a Bradford assay. The protein samples (20 μg each) were run on a 12% SDS-PAGE gel and transferred to a PROTRAN-NC (Whatman). Membrane-bound antibodies were detected by enhanced chemiluminescence (Pierce). All of the presented data were repeated with independent experimental settings, at least twice.
FTY720, D-erythro-sphingosine, and S1P were purchased from Cayman Chemicals. HEK-cells were infected with influenza virus and simultaneously treated with FTY720 (1 μM), D-erythro-sphingosine (1 μM), or its solvent (1% DMSO). Similarly, virus-infected cells were treated with S1P (1 μM) or its solvent (3 mM NaOH). These experiments were repeated two more times, with similar results.
For orientation: A western blot detects proteins with antibodies after separation by electrophoresis.

Test [3] has as its system Influenza A/WSN/33 virus (H1N1). Nature of the test: microbe, parasite or virus in culture. It is filed as cell-based. To be noted: read-out: EC50 (50% efficacy concentration that blocks virus production).
Test [4] deals with influenza virus. Nature of the test: Survival and weight loss of influenza virus-infected mice treated with SK inhibitor. It is filed as in vivo, C57BL/6 mice. As for the experimental part:
FIG. 8 (Panels A-B) set forth data illustrating reduced mortality of influenza virus-infected mice by SK inhibitor treatment. (A) Wild-type C57BL/6 mice (n=5/group) were infected in vivo with influenza virus at 10^5 plaque forming unit (PFU) intra-nasally (i.n.) and injected with vehicle (control, CTR) or DMS {0.1 mg/kg (mpk)} and their lifespan was monitored. (B) Mice were infected with 5×10^4 PFU of influenza virus and then treated with vehicle (control, CTR), DMS (0.003 mpk) or SKI-II (0.012 mpk) via intranasal inoculation. Survival of the infected mice was monitored daily for 14 days.
Refer to FIGS. 8A and 8B. Wild-type C57BL/6 mice (n=5/group) were infected in vivo with influenza virus at 10^5 PFU intra-nasally (i.n.) and injected with vehicle (CTR) or DMS {0.1 mg/kg (mpk)} and their lifespan was monitored.

For a further test, the system named is RanBP3. Nature of the test: Influenza virus-induced phosphorylation of RanBP3 in MDCK cells (Western blot). Type of test: cell-based, canine. The following applies: 5 MOI, 5 μM. As for the experimental part: FIG. 11 (Panels A-E) set forth data illustrating critical role of RanBP3 in influenza virus replication and RanBP3 regulation by SK inhibitor. (A-B) MDCK cells were infected with influenza virus at 5 MOI and treated with VEH or DMS (5 μM). Cell lysates were obtained at the indicated time points and the expression of pRanBP3 was assessed by Western blot analysis. Relative expression of pRanBP3 is shown in panel B. (C-E) HEK293 cells were transfected with control siRNA (siCTR) or siRNA targeting RanBP3 (siRanBP3). Western blotting was performed to detect RanBP3 and pRanBP3 (C). Cells were transfected with siRNA and then infected with influenza virus at 0.001 MOI. Virus titers were determined by using a plaque assay (D). Cells were transfected with siRNA and then infected with influenza virus at 1 MOI for 12 hrs. Immunocytochemistry followed by confocal microscopic analysis was performed to detect influenza viral NP (E).
(§2) Specific antibodies against actin, influenza viral protein NP, NS1, NS2, M1, M2, Bax, Bcl-2, PARP, STAT1, pSTAT1, STAT2, pSTAT2, ERK, pERK, p38, p-p38, Akt, pAkt, JNK, pJNK, RanBP3, pRanBP3, p-p90RSK, and FLAG for SPL and SK1 were purchased from Cell Signaling Technology, Abcam, Upstate, or Santa Cruz Biotechnology. […] Membrane-bound antibodies were detected by enhanced chemiluminescence (Pierce). […]

The next test has as its system ERK signaling pathway. Nature of the test: Influenza virus-induced activation of ERK MAP kinase signal in MDCK cells (Western blot). It is filed as cell-based, canine. To be noted: 3 MOI, 5 μM. As for the experimental part: FIG. 12 (Panels A-C) set forth data illustrating reduced activation of ERK MAP kinase signal by SK inhibitor treatment upon influenza virus infection. (A). MDCK cells were treated with VEH or DMS (5 μM) and infected with influenza virus at 3 MOI. Cell lysates were obtained at the indicated time points and the expression of ERK MAP kinase signaling components were assessed by Western blot analysis. Relative expression of pERK and p90RSK is shown in panels B and C respectively (dotted line, VEH treated; solid line, DMS treated).
as §1

Test [5] deals with Measles virus (Edmonston strain). It is filed as cell-based.
Test [6] deals with influenza virus. Put plainly: JAK inhibitor / STAT1 inhibitor assay: viral NP in infected HEK- and SPL-cells. It is filed as cell-based, Influenza A/WSN/33 virus (H1N1). The following applies: 1 MOI, treated at 2 hpi, 10 μM, after 2 days.
Excerpt: FIG. 4 (Panels A-E) set forth data illustrating the analyses for the activation of JAK/STAT following influenza virus infection of SPL-cells. HEK-cells or SPL-cells were uninfected or infected with influenza virus at 1 MOI. (A) At 1 dpi, cell lysates were used for Western blot analysis to detect STAT1, pSTAT1, STAT2, pSTAT2 and actin. (B) At 0, 12 or 18 hpi, whole proteins were extracted and then used for Western blot analysis to detect STAT1, pSTAT1 and actin. (C) HEK- or SPL-cells were pre-treated with fludarabine (1 μM) blocking STAT1 expression, and at 2 dpi, the expression of viral NP and actin was analyzed. (D) HEK-cells (filled bars) and SPL-cells (open bars) were uninfected (CTR) or infected with influenza virus at 1 MOI (left panel) or 10 MOI (right panel). Reverse transcription followed by quantitative real-time PCR was performed to detect the relative mRNA level of IFN-β. […] After 2 days, the level of viral NP and actin was assessed by Western blot analysis.
as §2

On to `CCCCCCCOc1ccc(CC[C@@](C)(N)CO)cc1` [AAL-R], for which, in the test on influenza virus [1] (reference 18), the “propagation of influenza virus” value is reported as “did not significantly alter the propagation of influenza virus”. Besides, in the test on influenza virus [1] (references 17, 18), the “influenza virus-induced immune pathology” value was “alleviate influenza virus-induced immune pathology”.
Take `CCCCCCCCCCCCC/C=C/[C@@H](O)[C@@H](N)CO` [D-erythro-sphingosine]: the “synthesis of influenza viral NP” value with influenza virus [2] is reported as “failed to enhance the synthesis of influenza viral NP”.
With `CCCCCCCCCCCCC/C=C/[C@@H](O)[C@H](CO)N(C)C` [DMS, D-erythro-N,N-dimethylsphingosine], the EC50 in test [3] was determined as 4.1 µM. Further, the “weight lost by treated infected mice” value with influenza virus [4] (10^5 PFU i.n., single dose 0.1 mpk, at 9-10 dpi) was roughly 20%. Further, in the test on influenza virus [4] (mouse, in vivo, 0.012 mg/kg), the “mortality rate of the infected mice” value is on record as “decreased the mortality rate of the infected mice”. Moreover, in the test on influenza virus [4] (mouse, in vivo, 0.1 mg/kg), the “protection from influenza virus-induced death (lifespan)” value was “effectively protected them from influenza virus-induced death”. Also, the “weight loss of the infected mice (morbidity experiment)” value with influenza virus [4] (n=5/group, −15% in CTR) is −7%. Besides, the “influenza virus-induced phosphorylation of RanBP3” value with RanBP3 was “blocked influenza virus-induced phosphorylation of RanBP3”. Moreover, in the test with ERK signaling pathway, the “influenza virus-induced activation (phosphorylation) of ERK” value was “suppress influenza virus-induced activation” and the “influenza virus-induced activation (phosphorylation) of p90RSK” value is reported as “suppress influenza virus-induced activation”.
For `CCCCCCCCc1ccc(CCC(N)(CO)CO)cc1` [FTY720], the “synthesis of influenza viral NP” value with influenza virus [2] was “failed to enhance the synthesis of influenza viral NP”.
On the same count and under the same terms, the value for `CCCCCCCCCCCCC/C=C/[C@@H](O)[C@@H](N)COP(=O)(O)O` [S1P, sphingosine-1-phosphate] was “failed to enhance the synthesis of influenza viral NP”.
Consider `Oc1ccc(Nc2nc(-c3ccc(Cl)cc3)cs2)cc1` [SKI-II, 4-[4-(4-Chloro-phenyl)-thiazol-2-ylamino]-phenol], for which, in test [3] (Influenza A virus, MDCK), the EC50 came out at 2.5 µM. The “viability of mice infected with influenza virus” value with influenza virus [4] (single dose 0.012 mpk, 5×10^4 PFU, intranasal, 14 days) is listed as “increased viability of mice infected with influenza virus”. For the same compound, in test [5], the “expression of measles viral proteins” value is on record as “inhibited” and the “production of measles virus (viral titers, plaque assay)” value is “interfered with the production of measles virus”.
With JAK inhibitor I, in the test on influenza virus [6] (HEK-cells), the “NP expression in HEK-cells” value is listed as “only a little increase of NP expression”. The “expression level of viral NP in SPL-cells” value with influenza virus [6] (SPL-cells) was “strongly elevated the expression level of viral NP”.

Values taken from patent US9687477B2 (priority 2011, dated 2017).
